Values after ≈ are worked out from the molar mass of the structure shown. Like-named read-outs stand apart in the source and are kept apart here. Numbered stars: 1 amine (or outer) side, 2 acyl side, 3 side chain; on linkers, the order of the positions; unused ones are H or OH. Square brackets hold non-standard residues; d marks the D form. Peptide text beside a SMILES is read from it. X1 = CC(C)[C@H](C)N(CC(=O)[*:2])[*:1]; Nspe = C[C@H](NCC(=O)O)c1ccccc1; Nlys = NCCCCNCC(=O)O
How the values were obtained:
Type in all cases: cell-based
[1] = tested on: B. subtilis (ATCC 6633); conditions: ATCC 6633
Summary of the method: (§1)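 MICs by broth microdilution per CLSI M7-A6 in cation-adjusted Mueller-Hinton broth, using 2:1 serial dilutions of peptoid and a bacterial inoculum of 1×10^6 CFU/mL. Values reproducible over three experiments, each with two parallel trials.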

[2] = tested on: E. coli (ATCC 35218); conditions: ATCC 35218
Summary of the method: as §1

[3] = tested on: Enterobacter aerogenes ATCC 35029
Procedure: (§2) Antibacterial assays. MICs were determined according to CLSI M7-A6 protocols in a 96-well microtiter plate. In test wells, 50 μL bacterial inoculum (5×10^5 CFU/ml) in Mueller-Hinton broth (MHB) was added to 50 μL peptoid solution in MHB (prepared by 1:2 serial dilutions). Positive controls contained 50 μL inoculum and 50 μL MHB without peptoid. […] MIC values reported were reproducible between three independent experimental replicates, each consisting of two parallel trials. Broad-spectrum antimicrobial susceptibility testing was performed against BSL2 pathogens by Nova Biologicals, Inc. (Conroe, Tex.).
(§3) Broad-spectrum antibacterial assays. MICs of compounds were determined by microdilution procedure in Mueller-Hinton broth (MHB) in accordance with CLSI M7-A6 protocols in a manner similar to that described for the screen antibacterial assays. Inoculated microtiter plates were incubated at 35° C. for 24 hours prior to the result being recorded. Four ATCC strains that were used as standards are recommended by CLSI: Pseudomonas aeruginosa ATCC 27853, Escherichia coli ATCC 25922, Staphylococcus aureus ATCC 29213 and Enterococcus faecalis ATCC 29212. Other strains from the ATCC collection include Proteus vulgaris ATCC 49132, Proteus mirabilis ATCC 35659, Klebsiella pneumoniae ATCC 33495, Enterobacter aerogenes ATCC 35029 and Serratia marcescens ATCC 13880. S. aureus NRS100 (COL) is a well characterized methicillian-resistant S. aureus (MRSA) strain. The strains S. aureus VAN1 and S. aureus VAN2, vancomycin-resistant MRSA strains that were isolated in Michigan and Pennsylvania, were the first vancomycin-resistant strains clinically isolated. S. aureus NRS119 and S. aureus NRS120 are linezolid-resistant isolates from the Network on Antimicrobial Resistance in S. aureus (NARSA) collection. E. faecalis 99 and E. faecium 106 are vancomycin-resistant enterococcal strains.

[4] = tested on: Enterococcus faecalis 99
Procedure: as §2, §3

[5] = tested on: Enterococcus faecalis ATCC 29212
Procedure: as §2, §3

[6] = tested on: Enterococcus faecium 106
Procedure: as §2, §3

[7] = tested on: Escherichia coli ATCC 25922
Procedure: as §2, §3

[8] = tested on: Klebsiella pneumoniae ATCC 33495
Procedure: as §2, §3

[9] = tested on: Proteus mirabilis ATCC 35659; conditions: ATCC 35659
Procedure: as §2, §3

[10] = tested on: Proteus vulgaris ATCC 49132
Procedure: as §2, §3

[11] = tested on: Pseudomonas aeruginosa ATCC 27853
Procedure: as §2, §3

[12] = tested on: Serratia marcescens ATCC 13880; conditions: ATCC 13880
Procedure: as §2, §3

[13] = tested on: Staphylococcus aureus ATCC 29213
Procedure: as §2, §3

[14] = tested on: Staphylococcus aureus NRS100 (COL)
Procedure: as §2, §3

[15] = tested on: Staphylococcus aureus NRS119
Procedure: as §2, §3

[16] = tested on: Staphylococcus aureus NRS120
Procedure: as §2, §3

[17] = tested on: Staphylococcus aureus VAN1
Procedure: as §2, §3

[18] = tested on: Staphylococcus aureus VAN2
Procedure: as §2, §3

[19] = Table 7A, MRSA, vancomycin-resistant

Row | B. subtilis MIC [1] [µM] | MIC Enterobacter aerogenes ATCC 35029 [3] [µM] | MIC Enterococcus faecalis 99 [4] [µM] | MIC Enterococcus faecalis ATCC 29212 [5] [µM] | MIC Enterococcus faecium 106 [6] [µM] | MIC Escherichia coli ATCC 25922 [7] [µM] | MIC Klebsiella pneumoniae ATCC 33495 [8] [µM] | MIC P. mirabilis ATCC 35659 [9] [mg/L] | MIC Proteus mirabilis ATCC 35659 [9] [µM] | MIC Proteus vulgaris ATCC 49132 [10] [µM] | MIC Pseudomonas aeruginosa ATCC 27853 [11] [µM] | MIC S. marcescens ATCC 13880 [12] [mg/L] | MIC Serratia marcescens ATCC 13880 [12] [µM] | MIC Staphylococcus aureus ATCC 29213 [13] [µM] | MIC Staphylococcus aureus NRS100 (COL) [14] [µM] | MIC Staphylococcus aureus NRS119 [15] [µM] | MIC Staphylococcus aureus NRS120 [16] [µM] | MIC Staphylococcus aureus VAN1 [17] [µM] | MIC Staphylococcus aureus VAN2 [18] [µM] | Structure (SMILES) | other results
1 | 0.78 | 19.0 (≈ 32 µg/mL) | 38.0 (≈ 64 µg/mL) | 4.8 (≈ 8.08 µg/mL) | 2.4 (≈ 4.04 µg/mL) | 4.8 (≈ 8.08 µg/mL) | 4.8 (≈ 8.08 µg/mL) | >128 | >76.0 | 19.0 (≈ 32 µg/mL) | 9.5 (≈ 16 µg/mL) | >128 | >76.0 | 4.8 (≈ 8.08 µg/mL) | 4.8 (≈ 8.08 µg/mL) | 9.5 (≈ 16 µg/mL) | 9.5 (≈ 16 µg/mL) | 4.8 (≈ 8.08 µg/mL) | 4.8 (≈ 8.08 µg/mL) | CC(C)[C@H](C)N(CC(=O)N(CC(=O)N(CCCCN)CC(=O)N(CC(=O)N(CC(=O)N(CCCCN)CC(=O)N(CC(=O)N(CC(=O)N(CCCCN)CC(=O)N(CC(=O)N(CC(N)=O)[C@@H](C)c1ccccc1)[C@@H](C)C(C)C)[C@@H](C)c1ccccc1)[C@@H](C)C(C)C)[C@@H](C)c1ccccc1)[C@@H](C)C(C)C)[C@@H](C)c1ccccc1)C(=O)CNCCCCN [1-Nsdp2,5,8,11, H-(Nlys-Nsdp-Nspe)4-NH2] (H-[Nlys][X1][Nspe][Nlys][X1][Nspe][Nlys][X1][Nspe][Nlys][X1][Nspe]-NH2) | E. coli MIC ([2]; Table 6): 12.5 µM; MIC E. aerogenes ATCC 35029 ([3]; Table 7A): 32 mg/L (≈ 19 µM); MIC E. faecalis 99 ([4]; Table 7A): 64 mg/L (≈ 38 µM); MIC E. faecalis ATCC 29212 ([5]; Table 7A): 8 mg/L (≈ 4.75 µM); MIC E. faecium 106 ([6]; Table 7A): 4 mg/L (≈ 2.38 µM); MIC E. coli ATCC 25922 ([7]; Table 7A): 8 mg/L (≈ 4.75 µM); MIC K. pneumoniae ATCC 33495 ([8]; Table 7A): 8 mg/L (≈ 4.75 µM); MIC P. vulgaris ATCC 49132 ([10]; Table 7A): 32 mg/L (≈ 19 µM); MIC P. aeruginosa ATCC 27853 ([11]; Table 7A): 16 mg/L (≈ 9.51 µM); MIC S. aureus ATCC 29213 ([13]; Table 7A): 8 mg/L (≈ 4.75 µM); MIC S. aureus NRS100 (COL) ([14]; Table 7A, MRSA): 8 mg/L (≈ 4.75 µM); MIC S. aureus NRS119 ([15]; Table 7A, linezolid-resistant): 16 mg/L (≈ 9.51 µM); MIC S. aureus NRS120 ([16]; Table 7A, linezolid-resistant): 16 mg/L (≈ 9.51 µM); MIC S. aureus VAN1 [17, 19]: 8 mg/L (≈ 4.75 µM); MIC S. aureus VAN2 [18, 19]: 8 mg/L (≈ 4.75 µM)
2 | 1.6 | 72.9 (≈ 128 µg/mL) | 36.5 (≈ 64.1 µg/mL) | 4.6 (≈ 8.07 µg/mL) | 2.3 (≈ 4.04 µg/mL) | 9.1 (≈ 16 µg/mL) | 9.1 (≈ 16 µg/mL) | >128 | >72.9 | 18.2 (≈ 31.9 µg/mL) | 18.2 (≈ 31.9 µg/mL) | >128 | >72.9 | 4.6 (≈ 8.07 µg/mL) | 4.6 (≈ 8.07 µg/mL) | 9.1 (≈ 16 µg/mL) | 9.1 (≈ 16 µg/mL) | 4.6 (≈ 8.07 µg/mL) | 4.6 (≈ 8.07 µg/mL) | C[C@@H](c1ccccc1)N(CC(N)=O)C(=O)CN(C(=O)CN(CCCCN)C(=O)CN(C(=O)CN(C(=O)CN(CCCCN)C(=O)[C@@H]1CCCN1C(=O)CN(C(=O)CN(CCCCN)C(=O)CN(C(=O)CN(C(=O)CNCCCCN)[C@@H](C)c1ccccc1)[C@@H](C)c1ccccc1)[C@@H](C)c1ccccc1)[C@@H](C)c1ccccc1)[C@@H](C)c1ccccc1)[C@@H](C)c1ccccc1 [1-Pro6, H-Nlys-Nspe-Nspe-Nlys-Nspe-L-Pro-(Nlys-Nspe-Nspe)2-NH2] (H-[Nlys][Nspe][Nspe][Nlys][Nspe]P[Nlys][Nspe][Nspe][Nlys][Nspe][Nspe]-NH2) | E. coli MIC [2]: 12.5 µM
